Measured values published in ChEMBL document CHEMBL1201862, “PubChem BioAssay data set” (2004).
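Cultured in 96-well plates, cells were exposed to test compound for 48 hours across five concentrations. Here, GI50 denotes the concentration required for 50% inhibition of growth.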 Calls of active or inactive are those of the source. Rule as the data show it: active = GI50 up to about 1.1 µM and inactive = higher.

Key:
Assay in all cases: NCI anticancer screen, dose series, 48 h
786-0 = system: 786-0
A549 = system: A549
BT-549 = system: BT-549
CAKI-1 = system: CAKI-1
CCRF-CEM = system: CCRF-CEM
COLO 205 = system: COLO 205
DU-145 = system: DU-145
EKVX = system: EKVX
HCC 2998 = system: HCC 2998
HCT-116 = system: HCT-116
HCT-15 = system: HCT-15
HOP-62 = system: HOP-62
HT-29 = system: HT-29
Hs-578T = system: Hs-578T
IGROV-1 = system: IGROV-1
K562 = system: K562
KM12 = system: KM12
LOX IMVI = system: LOX IMVI
M14 = system: M14
MCF7 = system: MCF7
MDA-MB-231 = system: MDA-MB-231
MDA-MB-435 = system: MDA-MB-435
MDA-N = system: MDA-N
MOLT-4 = system: MOLT-4
Malme-3M = system: Malme-3M
NCI-H226 = system: NCI-H226
NCI-H23 = system: NCI-H23
NCI-H522 = system: NCI-H522
NCI/ADR-RES = system: NCI/ADR-RES
OVCAR-3 = system: OVCAR-3
OVCAR-4 = system: OVCAR-4
OVCAR-5 = system: OVCAR-5
OVCAR-8 = system: OVCAR-8
PC-3 = system: PC-3
RPMI-8226 = system: RPMI-8226
RXF 393 = system: RXF 393
SF-268 = system: SF-268
SF-295 = system: SF-295
SF-539 = system: SF-539
SK-MEL-28 = system: SK-MEL-28
SK-MEL-2 = system: SK-MEL-2
SK-MEL-5 = system: SK-MEL-5
SK-OV-3 = system: SK-OV-3
SN12C = system: SN12C
SNB-19 = system: SNB-19
SNB-75 = system: SNB-75
SW-620 = system: SW-620
T47D = system: T47D
TK-10 = system: TK-10
U-251 = system: U-251
UACC-62 = system: UACC-62
UO-31 = system: UO-31
A498 = system: A498
ACHN = system: ACHN
HL-60 = system: HL-60
HOP-92 = system: HOP-92
NCI-H460 = system: NCI-H460
UACC-257 = system: UACC-257
SR = system: SR

## COc1ccc(/C=C2\N=C(SC)NC2=O)cc1
786-0
  GI50: > 100 µM (inactive)
A549
  GI50: > 100 µM (inactive)
BT-549
  GI50: 42.8 µM (inactive)
CAKI-1
  GI50: 56 µM (inactive)
CCRF-CEM
  GI50: 81.8 µM (inactive)
COLO 205
  GI50: 98.6 µM (inactive)
DU-145
  GI50: 53.8 µM (inactive)
EKVX
  GI50: 30.4 µM (inactive)
HCC 2998
  GI50: > 100 µM (inactive)
HCT-116
  GI50: > 100 µM (inactive)
HCT-15
  GI50: 89.7 µM
HOP-62
  GI50: > 100 µM (inactive)
HT-29
  GI50: > 100 µM (inactive)
Hs-578T
  GI50: 64.6 µM (inactive)
IGROV-1
  GI50: 56.5 µM (inactive)
K562
  GI50: > 10 µM (inactive)
KM12
  GI50: 54.6 µM (inactive)
LOX IMVI
  GI50: > 100 µM (inactive)
M14
  GI50: > 100 µM (inactive)
MCF7
  GI50: 70.8 µM (inactive)
MDA-MB-231
  GI50: 59.6 µM (inactive)
MDA-MB-435
  GI50: 91.8 µM (inactive)
MDA-N
  GI50: 83.6 µM (inactive)
MOLT-4
  GI50: 46.5 µM (inactive)
Malme-3M
  GI50: > 100 µM (inactive)
NCI-H226
  GI50: > 100 µM (inactive)
NCI-H23
  GI50: 67 µM (inactive)
NCI-H522
  GI50: 69 µM (inactive)
NCI/ADR-RES
  GI50: > 100 µM (inactive)
OVCAR-3
  GI50: > 100 µM (inactive)
OVCAR-4
  GI50: 71.1 µM (inactive)
OVCAR-5
  GI50: > 100 µM (inactive)
OVCAR-8
  GI50: > 100 µM (inactive)
PC-3
  GI50: 67.1 µM (inactive)
RPMI-8226
  GI50: 61.8 µM (inactive)
RXF 393
  GI50: 67.3 µM (inactive)
SF-268
  GI50: 58.6 µM (inactive)
SF-295
  GI50: > 100 µM (inactive)
SF-539
  GI50: 80.7 µM (inactive)
SK-MEL-28
  GI50: > 100 µM (inactive)
SK-MEL-2
  GI50: > 100 µM (inactive)
SK-MEL-5
  GI50: 53.6 µM (inactive)
SK-OV-3
  GI50: > 100 µM (inactive)
SN12C
  GI50: > 100 µM (inactive)
SNB-19
  GI50: 38.5 µM (inactive)
SNB-75
  GI50: 27.2 µM (inactive)
SW-620
  GI50: > 100 µM (inactive)
T47D
  GI50: 27.8 µM (inactive)
TK-10
  GI50: 86.1 µM (inactive)
U-251
  GI50: 90.6 µM (inactive)
UACC-62
  GI50: 70.3 µM (inactive)
UO-31
  GI50: 21.2 µM (inactive)

## CCCCOC(=O)C1CN2C(=NC1(C(F)(F)F)C(F)(F)F)Sc1ccccc12 (centres undefined)
786-0
  GI50: 64.3 µM (inactive)
A498
  GI50: > 100 µM (inactive)
A549
  GI50: 40.5 µM (inactive)
ACHN
  GI50: 30.3 µM (inactive)
BT-549
  GI50: 26.1 µM (inactive)
CAKI-1
  GI50: > 100 µM (inactive)
CCRF-CEM
  GI50: 30.2 µM (inactive)
COLO 205
  GI50: 31.8 µM (inactive)
DU-145
  GI50: 67.1 µM (inactive)
EKVX
  GI50: 37.2 µM (inactive)
HCT-116
  GI50: 33 µM (inactive)
HCT-15
  GI50: 45.6 µM
HL-60
  GI50: 16.6 µM (inactive)
HOP-62
  GI50: 82.4 µM (inactive)
HOP-92
  GI50: 72.4 µM (inactive)
HT-29
  GI50: 22.5 µM (inactive)
Hs-578T
  GI50: 30.6 µM (inactive)
IGROV-1
  GI50: 11 µM (inactive)
K562
  GI50: 12.2 µM (inactive)
KM12
  GI50: 27.2 µM (inactive)
LOX IMVI
  GI50: 43.5 µM (inactive)
M14
  GI50: 44.1 µM (inactive)
MCF7
  GI50: 32.1 µM (inactive)
MDA-MB-231
  GI50: > 100 µM (inactive)
MDA-MB-435
  GI50: > 10 µM (inactive)
MDA-N
  GI50: 60.3 µM (inactive)
MOLT-4
  GI50: 23 µM (inactive)
Malme-3M
  GI50: 53.1 µM (inactive)
NCI-H226
  GI50: 27 µM (inactive)
NCI-H23
  GI50: 24.5 µM (inactive)
NCI-H460
  GI50: 34.9 µM (inactive)
NCI/ADR-RES
  GI50: 27 µM (inactive)
OVCAR-3
  GI50: 58.5 µM (inactive)
OVCAR-4
  GI50: 45.5 µM (inactive)
OVCAR-5
  GI50: > 100 µM (inactive)
OVCAR-8
  GI50: 43.6 µM (inactive)
PC-3
  GI50: 16.2 µM (inactive)
RPMI-8226
  GI50: 26.1 µM (inactive)
RXF 393
  GI50: 24.1 µM (inactive)
SF-268
  GI50: 33.8 µM (inactive)
SF-295
  GI50: 36.9 µM (inactive)
SF-539
  GI50: 44.1 µM (inactive)
SK-MEL-28
  GI50: 74.5 µM (inactive)
SK-MEL-2
  GI50: 34.8 µM (inactive)
SK-MEL-5
  GI50: 20 µM (inactive)
SK-OV-3
  GI50: 78.5 µM (inactive)
SN12C
  GI50: 98.4 µM (inactive)
SNB-19
  GI50: 96.2 µM (inactive)
SNB-75
  GI50: 35.1 µM (inactive)
SW-620
  GI50: 49.5 µM (inactive)
T47D
  GI50: 16.8 µM (inactive)
TK-10
  GI50: 30.6 µM (inactive)
U-251
  GI50: 41.4 µM (inactive)
UACC-257
  GI50: 36.1 µM (inactive)
UACC-62
  GI50: 47.1 µM (inactive)
UO-31
  GI50: 19.2 µM (inactive)

## CCOC(=O)NC(Nc1ccc(S(=O)(=O)Nc2nc(C)cc(C)n2)cc1)(C(=O)OCC)C(F)(F)F (centres undefined)
786-0
  GI50: > 100 µM (inactive)
A498
  GI50: > 100 µM (inactive)
A549
  GI50: > 100 µM (inactive)
ACHN
  GI50: > 100 µM (inactive)
BT-549
  GI50: > 100 µM (inactive)
CAKI-1
  GI50: > 100 µM (inactive)
CCRF-CEM
  GI50: > 100 µM (inactive)
COLO 205
  GI50: > 100 µM (inactive)
DU-145
  GI50: > 100 µM (inactive)
EKVX
  GI50: > 100 µM (inactive)
HCC 2998
  GI50: > 100 µM (inactive)
HCT-116
  GI50: > 100 µM (inactive)
HCT-15
  GI50: > 100 µM
HL-60
  GI50: > 100 µM (inactive)
HOP-62
  GI50: > 100 µM (inactive)
HOP-92
  GI50: > 100 µM (inactive)
HT-29
  GI50: > 100 µM (inactive)
Hs-578T
  GI50: > 100 µM (inactive)
IGROV-1
  GI50: > 100 µM (inactive)
K562
  GI50: > 100 µM (inactive)
KM12
  GI50: > 100 µM (inactive)
LOX IMVI
  GI50: > 100 µM (inactive)
M14
  GI50: > 100 µM (inactive)
MCF7
  GI50: > 100 µM (inactive)
MDA-MB-231
  GI50: > 100 µM (inactive)
MDA-MB-435
  GI50: > 100 µM (inactive)
MDA-N
  GI50: > 100 µM (inactive)
MOLT-4
  GI50: > 100 µM (inactive)
Malme-3M
  GI50: > 100 µM (inactive)
NCI-H226
  GI50: > 100 µM (inactive)
NCI-H23
  GI50: > 100 µM (inactive)
NCI-H460
  GI50: > 100 µM (inactive)
OVCAR-3
  GI50: > 100 µM (inactive)
OVCAR-4
  GI50: > 100 µM (inactive)
OVCAR-5
  GI50: > 100 µM (inactive)
OVCAR-8
  GI50: > 100 µM (inactive)
PC-3
  GI50: > 100 µM (inactive)
RPMI-8226
  GI50: > 100 µM (inactive)
RXF 393
  GI50: > 100 µM (inactive)
SF-268
  GI50: > 100 µM (inactive)
SF-295
  GI50: > 100 µM (inactive)
SF-539
  GI50: > 100 µM (inactive)
SK-MEL-28
  GI50: > 100 µM (inactive)
SK-MEL-2
  GI50: > 100 µM (inactive)
SK-MEL-5
  GI50: > 100 µM (inactive)
SK-OV-3
  GI50: > 100 µM (inactive)
SN12C
  GI50: > 100 µM (inactive)
SNB-19
  GI50: > 100 µM (inactive)
SNB-75
  GI50: > 100 µM (inactive)
SR
  GI50: 5.33 µM (inactive)
SW-620
  GI50: > 100 µM (inactive)
T47D
  GI50: > 100 µM (inactive)
TK-10
  GI50: 72.9 µM (inactive)
U-251
  GI50: > 100 µM (inactive)
UACC-62
  GI50: > 100 µM (inactive)
UO-31
  GI50: > 100 µM (inactive)
